Assay results from publication PMC8382845, “High-content image-based analysis and proteomic profiling identifies Tau phosphorylation inhibitors in a human iPSC-derived glutamatergic neuronal model of tauopathy” (Scientific Reports, 2021).

Molecular target: T1, GSK3α (Homo sapiens, UniProt P49840)
T1 construct: gene GSK3A
T1 sequence (P49840 2-483): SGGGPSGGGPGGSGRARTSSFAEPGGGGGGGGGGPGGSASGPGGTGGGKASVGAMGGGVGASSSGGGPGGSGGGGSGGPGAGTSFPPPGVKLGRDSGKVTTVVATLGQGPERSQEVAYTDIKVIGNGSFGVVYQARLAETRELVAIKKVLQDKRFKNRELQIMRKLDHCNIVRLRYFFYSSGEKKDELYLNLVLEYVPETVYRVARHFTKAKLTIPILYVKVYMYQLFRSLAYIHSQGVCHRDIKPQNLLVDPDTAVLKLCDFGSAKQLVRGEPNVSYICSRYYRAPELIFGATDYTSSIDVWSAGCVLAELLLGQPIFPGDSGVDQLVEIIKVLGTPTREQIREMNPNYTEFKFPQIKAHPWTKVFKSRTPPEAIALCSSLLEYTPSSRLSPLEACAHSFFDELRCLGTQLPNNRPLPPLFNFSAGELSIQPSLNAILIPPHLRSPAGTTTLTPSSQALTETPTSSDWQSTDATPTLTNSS

SMILES: Cc1c[nH]c(-c2cnc(NCCNc3ccc(C#N)cn3)nc2-c2ccc(Cl)cc2Cl)n1 [CHIR-99021]
- MIB-MS chemoproteomic competition (loss of kinase binding to inhibitor beads) af: This effect of CHIR-99021 was similar between the two GSK isoforms, GSK3α and GSK3β (Fig. 5C) in both NPC and neurons
